Measured values taken from ChEMBL document CHEMBL1123608, “In vivo antitumor activity of 6-benzyl-1,3-benzodioxole derivatives against the P388, L1210, B16, and M5076 murine models” (1987).

Key:
[1] = Ability to inhibit the dibutyryl-cAMP-induced change of an immature glioma cell to a mature, differentiated astrocyte by in vitro astrocytoma assay at 100 ug/mL dose (Experiment #1) value may range from 51 to 70; format: functional, Mus musculus
[2] = Ability to inhibit the dibutyryl-cAMP-induced change of an immature glioma cell to a mature, differentiated astrocyte by in vitro astrocytoma assay at 100 ug/mL dose (Experiment #2) value may range from 31 to 50; format: functional, Mus musculus
[3] = Ability to inhibit the dibutyryl-cAMP-induced change of an immature glioma cell to a mature, differentiated astrocyte by in vitro astrocytoma assay at 10 ug/mL dose (Experiment #1) value may range from 6 to 15; format: functional, Mus musculus
[4] = Ability to inhibit the dibutyryl-cAMP-induced change of an immature glioma cell to a mature, differentiated astrocyte by in vitro astrocytoma assay at 10 ug/mL dose (Experiment #2) value may range from 31 to 50; format: functional, Mus musculus
[5] = Ability to inhibit the dibutyryl-cAMP-induced change of an immature glioma cell to a mature, differentiated astrocyte by in vitro astrocytoma assay at 1 ug/mL dose (Experiment #1) value may range from 0 to 5; format: functional, Mus musculus
[6] = Ability to inhibit the dibutyryl-cAMP-induced change of an immature glioma cell to a mature, differentiated astrocyte by in vitro astrocytoma assay at 1 ug/mL dose (Experiment #2) value may range from 0 to 5; format: functional, Mus musculus
Mus musculus [7] = assay: The percent increase in life span on P388 cells which were inoculated intraperitoneally in CD2F1 mice at 200 mg/kg dose placed at ranking order 1; format: functional; details: P388, ip, route intraperitoneal
Mus musculus [8] = assay: The percent increase in life span on P388 cells which were inoculated intraperitoneally in CD2F1 mice at 200 mg/kg dose placed at ranking order 3; format: functional; details: P388, ip, route intraperitoneal
Mus musculus [9] = assay: The percent increase in life span on P388 cells which were inoculated intraperitoneally in CD2F1 mice at 400 mg/kg (tested in the same control) dose placed at ranking order 4; format: functional; details: P388, ip, route intraperitoneal
Mus musculus [10] = assay: In vivo antitumor activity against the B16 melanoma cell line expressed as percent increase in life span at 100 mg/kg dose; format: functional
Mus musculus [11] = assay: In vivo antitumor activity against the B16 melanoma cell line expressed as percent increase in life span at 200 mg/kg dose; format: functional
Mus musculus [12] = assay: In vivo antitumor activity against the L1210 leukemia cell line expressed as percent increase in life span at 200 mg/kg dose; format: functional; details: Mus musculus, L1210, dose 200 mg/kg
Mus musculus [13] = assay: In vivo antitumor activity against the L1210 leukemia cell line expressed as percent increase in life span at 400 mg/kg dose; format: functional
Mus musculus [14] = assay: In vivo antitumor activity against the M5076 reticulum cell sarcoma expressed as percent increase in life span at 400 mg/kg dose; format: functional
Mus musculus [15] = assay: The percent increase in life span on P388 cells which were inoculated intraperitoneally in CD2F1 mice at 800 mg/kg dose placed at ranking order 2; format: functional; details: P388, ip, route intraperitoneal
Mus musculus [16] = assay: In vivo antitumor activity against the M5076 reticulum cell sarcoma expressed as percent increase in life span at 800 mg/kg doseEach represents a pair of experiments performed with the same control group; format: functional
Mus musculus [17] = assay: Percent increase in life span (ILS) was measured on P388 cells which were inoculated intraperitoneally in CD2F1 mice; format: functional
Mus musculus [18] = assay: The percent increase in life span on P388 cells which were inoculated intraperitoneally in CD2F1 mice at 200 mg/kg dose placed at ranking order 2; format: functional; details: P388, ip, route intraperitoneal
Mus musculus [19] = assay: The percent increase in life span on P388 cells which were inoculated intraperitoneally in CD2F1 mice at 400 mg/kg (tested in the same control) dose placed at ranking order 1; format: functional; details: P388, ip, route intraperitoneal
Mus musculus [20] = assay: The percent increase in life span on P388 cells which were inoculated intraperitoneally in CD2F1 mice at 400 mg/kg dose placed at ranking order 3; format: functional; details: P388, ip, route intraperitoneal
Mus musculus [21] = assay: The percent increase in life span on P388 cells which were inoculated intraperitoneally in CD2F1 mice at 400 mg/kg dose placed at ranking order 4; format: functional; details: P388, ip, route intraperitoneal

C=CCOc1cc2c(cc1C(C)c1ccc(OC)cc1)OCO2 (configuration not stated)
Astrocyte reversal [1]: 70%
Astrocyte reversal [2]: 50%
Astrocyte reversal [3]: 15%
Astrocyte reversal [4]: 50%
Astrocyte reversal [5]: 5%
Astrocyte reversal [6]: 5%
ILS at 200 mg/kg (Mus musculus [7]): 88%
ILS at 200 mg/kg (Mus musculus [8]): 41%
ILS at 400 mg/kg (Mus musculus [9]): 39%
ILS at 100 mg/kg (Mus musculus [10]): 27%
ILS at 200 mg/kg (Mus musculus [11]): 55%
ILS at 200 mg/kg (Mus musculus [12]): 43%
ILS at 400 mg/kg (Mus musculus [13]): 39%
ILS at 400 mg/kg (Mus musculus [14]): 33%
ILS at 800 mg/kg (Mus musculus [15]): 84%
ILS at 800 mg/kg (Mus musculus [16]): 58%
ILS (Mus musculus [17]): 88%

CCCOc1cc2c(cc1C(C)c1ccc(OC)cc1)OCO2 (configuration not stated)
ILS at 200 mg/kg (Mus musculus [18]): 21%
ILS at 400 mg/kg (Mus musculus [19]): 30%
ILS at 400 mg/kg (Mus musculus [20]): 14%
ILS at 400 mg/kg (Mus musculus [21]): 12%
ILS (Mus musculus [17]): 30%
